According to publication PMC8222254, “Self-assembly of an anion receptor with metal-dependent kinase inhibition and potent in vitro anti-cancer properties” (Nature Communications, 2021):

Legend:
[1] = system: recombinant human AMPK (pT172 AMPKα1, pS108 AMPKβ1); experiment: In vitro phosphatase assay with recombinant kinase, immunoblotting; type: biochemical; details: 50µM
Protocol: 800 ng of purified recombinant human AMPK (α1β2γ1) or Src kinase (MRC PPU, International Centre for Kinase Profiling, University of Dundee) was incubated with 50 μM [L2Cu3]^6+, [L2Zn3]^6+, or vehicle control in 50 mM Tris HCl pH 7.5 containing 50 μM ATP for 4 h at 37 °C. For [L2Zn3]^6+ time course and concentration titration experiments, 800 ng recombinant human AMPK was used (α1β2γ1 AMPK isoform for pT172 AMPKα1 detection or α2β1γ1 AMPK isoform for pS108 AMPKβ1 detection). For evaluation of ATP dependency and influence of AMP, 50 µM ATP was replaced with 50 µM AMP or omitted. Reactions were stopped by addition of Laemmli’s buffer (Biorad) to 1x and heating at 95 °C for 5 min before analysis by SDS PAGE and immunoblotting for detection of specific phosphorylated amino acids of AMPK and Src proteins.
Protein lysates and recombinant proteins were resolved on 15% SDS polyacrylamide gels. Proteins were electroblotted onto nitrocellulose membrane by wet transfer in 1xTris Glycine buffer (Biorad) at 35 mA overnight at room temperature. After blocking of membranes, these were incubated with primary antibody overnight at 4 °C before addition of rabbit or mouse secondary antibody (HRP-conjugated; 1:5000, Dako P0448 or P0260) for 1 h at room temperature and development of blots by enhanced chemiluminescence. Primary antibodies were: anti-Src (total) (Cell Signalling Technology #2123 1:1000), anti-phosphorylated Src (Y527) (Cell Signalling Technology #21055 1:1000), anti-phosphorylated Src (Y416) (Cell Signalling Technology #69435 1:1000), anti-AMPKα (total) (Cell Signalling Technology #2532 1:1000), anti-phosphorylated AMPKα (T172) (Cell Signalling Technology #2535 1:1000), anti-AMPKβ1 (total) (Cell Signalling Technology #4150 1:1000), anti-phosphorylated AMPKβ1 (S108) (abcam ab156890 1:500), anti-phospho-Tyr (pan) (Cell Signalling Technology #8954 1:2000), anti-p53 (Santa Cruz, DO-1 clone, 1:1000,), anti-phosphorylated LDH-A (Y10) (Cell Signalling Technology #8176 1:1000), anti-LDH-A/B (total) (abcam ab134187 1:5000), anti-β-actin (Merck MAB1501, 1:40,000). Quantification of signals was performed by densitometry using Image J software. Uncropped and unprocessed scans are provided in the Source Data file.

[2] = 31P NMR study of hydrolysis of phosphate esters and phosphorylated amino acids
Protocol: For ^1H NMR studies, reaction of [L2Zn3]^6+ with either Na2O3POPh and Bu4NH2PO4 was carried out in 10% D2O in CD3CN. The NMR solutions were prepared by dissolving the ligand L and Zn(C2H3O2)2 (in a ratio of 1:1.5) in CD3CN (600 µL). The relevant anion (0.5 equivalents w.r.t ligand) was dissolved in D2O (60 µL) and these solutions were then combined. Heating of the sample was carried out @ 80 °C in a water bath for the specified amount of time. For the ^31P NMR studies solutions were prepared by dissolving the ligand L and Zn(C2H3O2)2 (in a ratio of 1:1.5) in d6-DMSO (200 µL). The anion (0.5 equivalents w.r.t ligand) was dissolved in HEPES (600 µL, 60 mmol @ pH 7.4) and these solutions were then combined. Where required heating of the sample was carried out by incubating the sample @ 37 °C and/or a further 2 h @ 80 °C in a water bath.

[3] = system: HCT116; experiment: Metabolic flux analysis (Cell Energy Phenotype Assay, OCR/ECAR); type: cell-based, human; design: Mean Baseline EACR / Baseline EACR / Mean Stressed OCR / Stressed OCR / Mean Stressed EACR / Stressed EACR / Mean Baseline OCR / Baseline OCR: unit not given here; details: for Baseline EACR / Baseline OCR / Stressed EACR / Stressed OCR / Mean Baseline EACR / Mean Baseline OCR / Mean Stressed EACR / Mean Stressed OCR: HCT116 cells
Protocol: ARPE-19 and HCT116 cells were seeded in 8-well XFp plates (Agilent) 48 h prior to metabolic flux analyses using the Agilent XFp extracellular flux analyser. Cell seeding densities were 2500 cells/well for ARPE-19 cells and 7500 cells/well for HCT116 cells in order to achieve equivalent cell confluency (~70% confluency and in log phase growth) at the time of analyses. Cells were treated with 25 μM of [L2Zn3]^6+ or solvent control (0.2% DMSO) for 1 h or 20 h before metabolic flux analyses using the Cell Energy Phenotype Assay (Agilent) in accordance with the manufacturer’s instructions. For determination of maximal respiratory and glycolytic rates (metabolic reserve) following real-time quantification of basal respiratory and glycolytic rates, a ‘metabolic stress mix’ of 1 µM oligomycin and FCCP (0.5 µM for ARPE-19, 0.25 µM for HCT116) was injected into the media.

[4] = system: ARPE-19; experiment: TSQ cellular localisation / uptake study; type: cell-based, human; details: ARPE-19, 25μM, 1 hour
Protocol: (§1) 48 h following cell seeding in Lumox chamber slides (8-well, Sarstedt), cells (ARPE-19 and HCT116 p53^+/+ were treated for 1 h at 37 °C with 25 μM of [L2Zn3]^6+ or DMSO solvent control before removal and washout three times using complete phenol-red free media. 25 μM TSQ (Enzo Life Sciences) was then added for 30 min for detection of cellular zinc before its washout (three washes) and analyses by confocal microscopy (Zeiss LSM880).

[5] = system: HCT116 p53+/+; experiment: TSQ cellular localisation / uptake study; type: cell-based, human; details: 25μM, 1 hour
Protocol: as §1

[6] = 1h exposure, mean of 3 runs (Fig. 9c)
[7] = 20h exposure, mean of 3 runs (Fig. 9d)

## CC(=O)[O-].CC(=O)[O-].CC(=O)[O-].CC(=O)[O-].CC(=O)[O-].CC(=O)[O-].[Zn+2].[Zn+2].[Zn+2].c1ccc(-c2csc(NCCN(CCNc3nc(-c4ccccn4)cs3)CCNc3nc(-c4ccccn4)cs3)n2)nc1.c1ccc(-c2csc(NCCN(CCNc3nc(-c4ccccn4)cs3)CCNc3nc(-c4ccccn4)cs3)n2)nc1 [[L2Zn3]6+]
[1]
  time from which decrease in phosphorylated T172 AMPKα and S108 AMPKβ1 is evident: ≥ 2 h
[2]; 37 °C
  dephosphorylation of serine-OPO3 2- (31P NMR): completion after 48 h
  dephosphorylation of tyrosine-OPO3 2- (31P NMR): completion after 48 h
[2]; 37 °C, compared with serine and tyrosine phosphate
  dephosphorylation of threonine-OPO3 2- (31P NMR): much slower
[2]; after 44 h at 37 °C, 25% DMSO / HEPES
  hydrolysis of phenyl phosphate dianion (31P NMR): virtually no signal
[2]; following mixing
  hydrolysis of 4-nitrophenyl phosphate (31P NMR): almost immediate hydrolysis
[3]; HCT116, 25 μM, 1 h
  glycolysis (ECAR): modest selective decrease
[3]; HCT116, 25 μM, 20 h
  mitochondrial respiration and glycolysis: substantially impaired
[3]; 1h exposure, Run 1 (Fig. 9c)
  Baseline EACR: 36.12
  Baseline OCR: 98.34
  Stressed EACR: 50.32
  Stressed OCR: 147.22
[3]; 1h exposure, Run 2 (Fig. 9c)
  Baseline EACR: 27.29
  Baseline OCR: 76.52
  Stressed EACR: 37.11
  Stressed OCR: 109.94
[3]; 1h exposure, Run 3 (Fig. 9c)
  Baseline EACR: 34.53
  Baseline OCR: 90.56
  Stressed EACR: 47.29
  Stressed OCR: 132.49
[3]; [6]
  Mean Baseline EACR: 32.65
  Mean Baseline OCR: 88.47
  Mean Stressed EACR: 44.91
  Mean Stressed OCR: 129.88
[3]; 20h exposure, Run 1 (Fig. 9d)
  Baseline EACR: 24.12
  Baseline OCR: 21.60
  Stressed EACR: 29.60
  Stressed OCR: 20.79
[3]; 20h exposure, Run 2 (Fig. 9d)
  Baseline EACR: 26.59
  Baseline OCR: 20.38
  Stressed EACR: 33.07
  Stressed OCR: 21.88
[3]; 20h exposure, Run 3 (Fig. 9d)
  Baseline EACR: 25.54
  Baseline OCR: 19.42
  Stressed EACR: 31.03
  Stressed OCR: 19.19
[3]; [7]
  Mean Baseline EACR: 25.41
  Mean Baseline OCR: 20.47
  Mean Stressed EACR: 31.23
  Mean Stressed OCR: 20.62
[4]
  cellular uptake (TSQ fluorescent signal): increase in TSQ fluorescent signal
[5]
  cellular uptake (TSQ fluorescent signal): increase in TSQ fluorescent signal
